Data published in patent publication US20240342111A1, “ISOMER-SPECIFIC NEUROPROTECTIVE EFFECT OF NATURAL RESERVATROL” (priority 2021, published 2024).

What was measured:
[1] = system: rat primary cortical neuron cultures; assay: NMDA excitotoxicity, viability by MTT assay; assay type: cell-based; settings: then NMDA 500 μM for 5 minutes
Experimental: Cells were then exposed to excitotoxic NMDA (500 μM for 5 minutes) and viability was assessed using MTT assay after 24 hours. […] Rat cortical neurons (DIV 9) were treated with NMDA (50 μM for 5 minutes) and then with cis-RSV for 24 hours. Cells were then exposed to excitotoxic NMDA (500 μM for 5 minutes) and viability was assessed using MTT assay after 24 hours. […] Cell viability was assessed after 48 hours. […] Representative images (scale bar, 20 μm) for cortical neurons following neurite degeneration (MAP2—neurite marker, magenta and DAPI—nuclear marker, blue). […] Neurons were immunoassayed with anti-MAP2 antibody and quantified for neurite degeneration. The data represents mean±SEM for n=3 experiments with significance measured using Student's paired t-test.
(§1) Primary cortical neuron cultures were obtained from E18 Sprague Dawley rats' cortices, which were dissected in Hibernate E (BrainBits) and dissociated using the Neural Tissue Dissociation kit (Miltenyi Biotec). For this, minced cortices were incubated in a pre-warmed enzyme mix at 37° C. for 15 min; tissues were then triturated and strained using a 40 μm cell strainer. After washing and centrifugation, neurons were seeded in 50 μg/ml poly-D-Lysine (Sigma Aldrich) coated tissue culture plates. NBActive-1 medium (BrainBits) supplemented with 100 U/ml of Penicillin-Streptomycin (Life Technologies), 2 mM L-Glutamine (Life Technologies), and 1 X N21 supplement (R&D Systems) was used as culture medium. Control (AM4635), TyrRS (s443), PARP1 (s130207) siRNA for transfection were obtained from Invitrogen. […]
(§2) Rat cortical neurons (DIV 10-11) were exposed to different treatments after seeding 20,000 cells/well in 96-well plates. Cell viability was then assessed at 48 hours after the initial exposure to NMDA. […] The percentage of MTT reduced as measured by the difference between the absorbances at 570 nm read in a spectrophotometer (Spectramax 190R Molecular Devices, UK). The percentage of reduction of MTT was calculated comparing the difference of the absorbance at 570 of each sample. […]

Rat cortical neurons [2] = assay: DNA damage (etoposide)-induced neurotoxicity, MTT assay; assay type: cell-based; settings: 5 μM etoposide 24 hours, pre-treatment 16 hours
Rat cortical neurons [3] = assay: Oxidative stress (H2O2)-induced toxicity, viability; assay type: cell-based; settings: 400 μM H2O2 24 hours, pre-treatment 16 hours
OGG1 = assay: Immunoblot for OGG1 protein; assay type: cell-based, rat; settings: 5-50 μM, 4 hours
Rat cortical neurons [4] = assay: trans-RSV in combination with cis-RSV, viability by MTT assay; assay type: cell-based; settings: cis-RSV 10-50 μM in combination with trans-RSV, 48 hours
Experimental: (§3) Cell viability was assessed and quantified using MTT assay.
Rat cortical neurons (DIV 10-11) were exposed to different treatments after seeding 20,000 cells/well in 96-well plates. Cell viability was then assessed at 48 hours after the initial exposure to NMDA. 3-[4,5-dimethylthiazole-2-yl]-2,5-diphenyltetrazolium bromide (MTT) assays were used to assess change in cell viability. Cultured rat cortical neurons were incubated with MTT (0.5 mg/mL). In the MTT assay, after 2 h incubation, the insoluble purple product formazan resulting from the reduction of MTT by NAD(P)H-dependent oxidoreductases present in cells with viable mitochondria was solubilized in dimethyl sulfoxide at room temperature, under agitation, and protected from light. The percentage of MTT reduced as measured by the difference between the absorbances at 570 nm read in a spectrophotometer (Spectramax 190R Molecular Devices, UK). The percentage of reduction of MTT was calculated comparing the difference of the absorbance at 570 of each sample. Results are presented as percentage of control (wells incubated with the vehicle).

HPF1 = assay: Immunoblot for HPF1 protein; assay type: cell-based, rat; settings: high dose 25 μM, up to 16 hr, time-dependent
From the text: Ac-K56-H3 is a marker of genomic stability, see Driscoll, R., Hudson, A. & Jackson, S. P. Yeast Rtt109 promotes genome stability by acetylating histone H3 on lysine 56. Science 315, 649-652, doi:10.1126/science.1135862 (2007), and DNA damage, see Tjeertes, J. V., Miller, K. M. & Jackson, S. P. Screen for DNA-damage-responsive histone modifications identifies H3K9Ac and H3K56Ac in human cells. EMBO J 28, 1878-1889, doi:10.1038/emboj.2009.119 (2009), and inhibition of PARP1 causes the downregulation of RAD51, see Hegan, D. C. et al. Inhibition of poly(ADP-ribose) polymerase down-regulates BRCA1 and RAD51 in a pathway mediated by E2F4 and p130. […] The western blot images of the protein levels of HPF1 was quantified using ImageJ.
Cultured neurons (DIV 9-10) were washed once with cold 1×PBS and lysed in cell lysis buffer (20 mM Tris-HCl (pH 7.5), 150 mM NaCl, 1 mM Na2EDTA, 1 mM EGTA, 1% Triton, 2.5 mM sodium pyrophosphate, 1 mM beta-glycerophosphate, 1 mM Na3VO4, 1 μg/ml leupeptin supplemented with protease inhibitor). […] Lysates were quantified using Bio-Rad Protein Assay, and an equal amount of protein was loaded onto a 4 to 12% gradient gel (NuPAGE-Invitrogen). […] Quantification for the western blots was done using ImageJ (Version 1.53c).

[5] = system: Rat cortical neurons transfected with PARP1 siRNA; assay: siRNA knockdown of PARP1, trans-RSV neurotoxicity, MTT assay; assay type: cell-based; settings: trans-RSV 50 μM, 72 hours
Experimental: as §3, §1, §2

Ac-K56-H3 = settings: diabetes patients, 500 mg/day; cited from earlier work

Row | Compound | neuronal survival under NMDA excitotoxicity ([1]; cis-RSV for 24 hours) | protection from DNA damage-induced neurotoxicity (Rat cortical neurons [2]) | protection from toxicity induced by oxidative stress (Rat cortical neurons [3]) | OGG1 protein levels (OGG1) | trans-RSV-mediated neurotoxicity (Rat cortical neurons [4]) | neuronal survival under NMDA excitotoxicity ([1]; higher dose (≥25 μM), 24 hours) | neuronal survival under NMDA excitotoxicity ([1]; low dose (≤10 μM), 24 hours) | HPF1 protein levels (HPF1) | effect of PARP1 siRNA knockdown on neurotoxicity [5] | levels of Ac-K56-H3 in PBMC (Ac-K56-H3)
1 | Oc1ccc(/C=C\c2cc(O)cc(O)c2)cc1 [cis-RSV, cis-resveratrol] | protected against excitotoxicity in a dose-dependent manner | protects neurons from DNA damage-induced neurotoxicity | protects neurons from toxicity induced by oxidative stress | downregulated both the protein levels of OGG1 and the levels of 8-oxo-dG | rescued trans-RSV-mediated neurotoxicity |  |  |  |  | 
2 | Oc1ccc(/C=C/c2cc(O)cc(O)c2)cc1 [trans-RSV, trans-resveratrol] |  |  |  |  |  | exacerbated the N-Methyl-D-aspartate (NMDA)-mediated excitotoxicity | evoked neuroprotective effects | downregulated the protein levels of the histone poly-ADP-ribosylation factor 1 (HPF1) | protected against trans-RSV-mediated neurotoxicity | decreased levels of Ac-K56-H3
